Reference: PubChem BioAssay AID330 (DTP/NCI, 2004)
Toxic doses and inconclusive results are not listed.

Tested on: P388 leukemia ip, CD2F1 mice, survival T/C
Test: NCI In Vivo Anticancer Drug Screen. Data for tumor model P388 Leukemia (intraperitoneal) in CD2F1 (CDF1) mice
Conditions: endpoint: median survival time, higher = longer survival
In short: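 Mice carrying the transplanted tumor received test compound or vehicle. Survival was recorded in each group, and the value is the treated-group measurement divided by that of the vehicle-treated control group.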

[1] = dose: 60.0 mg/kg/injection, schedule: Q01DX005 (ip), vehicle: saline with Tween-80
[2] = dose: 120.0 mg/kg/injection, schedule: Q01DX005 (ip), vehicle: saline with Tween-80
[3] = dose: 240.0 mg/kg/injection, schedule: Q01DX005 (ip), vehicle: saline with Tween-80
[4] = dose: 50.0 mg/kg/injection, schedule: Q01DX009 (ip), vehicle: suspension in saline
[5] = dose: 12.5 mg/kg/injection, schedule: Q01DX009 (ip), vehicle: saline with Tween-80

## Nc1nnc(/C=C/c2ccc(Cl)cc2)o1
[1]
  T/C: 98 % of control
[2]
  T/C: 105 % of control
[3]
  T/C: 106 % of control

## S=C(Nc1ccc(I)cc1)SCc1ccc(Cl)cc1
[4]
  T/C: 104 % of control
dose: 100.0 mg/kg/injection, schedule: Q01DX009 (ip), vehicle: suspension in saline
  T/C: 111 % of control
dose: 200.0 mg/kg/injection, schedule: Q01DX009 (ip), vehicle: suspension in saline
  T/C: 119 % of control

## O=c1ccocc1OC1OC(CO)C(O)C(O)C1O (stereo not given)
dose: 5.75 mg/kg/injection, schedule: Q01DX005 (ip), vehicle: saline
  T/C: 95 % of control
dose: 11.5 mg/kg/injection, schedule: Q01DX005 (ip), vehicle: saline
  T/C: 113 % of control
dose: 23.0 mg/kg/injection, schedule: Q01DX005 (ip), vehicle: saline
  T/C: 106 % of control
dose: 46.0 mg/kg/injection, schedule: Q01DX005 (ip), vehicle: saline
  T/C: 105 % of control

## O=C(NN1C(=O)CSC1c1ccc(F)cc1)c1ccncc1 (stereo not given)
[1]
  T/C: 99 % of control
[2]
  T/C: 100 % of control
[3]
  T/C: 92 % of control

## Cc1noc(NS(=O)(=O)c2ccc(NC(=O)NCCCl)cc2)c1C
dose: 30.0 mg/kg/injection, schedule: Q01DX005 (ip), vehicle: Klucel (hydroxypropylcellulose) (HPC)
  T/C: 102 % of control
dose: 60.0 mg/kg/injection, schedule: Q01DX005 (ip), vehicle: Klucel (hydroxypropylcellulose) (HPC)
  T/C: 98 % of control
dose: 120.0 mg/kg/injection, schedule: Q01DX005 (ip), vehicle: Klucel (hydroxypropylcellulose) (HPC)
  T/C: 95 % of control
dose: 240.0 mg/kg/injection, schedule: Q01DX005 (ip), vehicle: Klucel (hydroxypropylcellulose) (HPC)
  T/C: 97 % of control

## COc1ccc(C(=O)CC(=O)CCC(=O)Nc2cc(C)ccc2C)cc1
[1]
  T/C: 101 % of control
[2]
  T/C: 105 % of control
[3]
  T/C: 97 % of control

## CC(=O)OCCC/C(=C\c1c2ccccc2cc2ccccc12)[N+](=O)[O-]
dose: 60.0 mg/kg/injection, schedule: Q01DX005 (ip), vehicle: suspension in saline
  T/C: 100 % of control
dose: 120.0 mg/kg/injection, schedule: Q01DX005 (ip), vehicle: suspension in saline
  T/C: 102 % of control
dose: 240.0 mg/kg/injection, schedule: Q01DX005 (ip), vehicle: suspension in saline
  T/C: 97 % of control

## CCCCCCCCCCCCCCCC(CCCC)CCCCCC (stereo not given)
dose: 50.0 mg/kg/injection, schedule: Q01DX001 (ip), vehicle: saline sonified
  T/C: 100 % of control
dose: 100.0 mg/kg/injection, schedule: Q01DX001 (ip), vehicle: saline sonified
  T/C: 100 % of control
dose: 200.0 mg/kg/injection, schedule: Q01DX001 (ip), vehicle: saline sonified
  T/C: 100 % of control

## CC1(C)CC(c2ccccc2)C(c2ccccc2)C(=O)O1 (stereo not given)
dose: 100.0 mg/kg/injection, schedule: Q04DX003 (ip), vehicle: Klucel (hydroxypropylcellulose) (HPC)
  T/C: 93 % of control
dose: 200.0 mg/kg/injection, schedule: Q04DX003 (ip), vehicle: Klucel (hydroxypropylcellulose) (HPC)
  T/C: 92 % of control

## C=CCOc1cc2c(cc1C(C)c1ccc(OC)c(OC)c1)OCO2 (stereo not given)
dose: 50.0 mg/kg/injection, schedule: Q01DX005 (ip), vehicle: saline with Tween-80
  T/C: 99 % of control
dose: 100.0 mg/kg/injection, schedule: Q01DX005 (ip), vehicle: saline with Tween-80
  T/C: 100 % of control
dose: 200.0 mg/kg/injection, schedule: Q01DX005 (ip), vehicle: saline with Tween-80
  T/C: 95 % of control

## CN(C)c1ccc(N=C2C=CC(=O)C(Cl)=C2)cc1
dose: 25.0 mg/kg/injection, schedule: Q01DX009 (ip), vehicle: suspension in saline
  T/C: 106 % of control
[4]
  T/C: 115 % of control

## CO/N=C1\CC(C)N2C(=O)C(C(C)C)NC(=O)C(NC(=O)c3c4nc5c(C(=O)NC6C(=O)NC(C(C)C)C(=O)N7C(C)CC(O)C7C(=O)N(C)CC(=O)N(C)C(C(C)C)C(=O)OC6C)ccc(C)c5oc-4c(C)c(=O)c3N)C(CO)OC(=O)C(C)N(C)C(=O)CN(C)C(=O)C12 (stereo not given)
dose: 12.5 mg/kg/injection, schedule: Q01DX005 (ip), vehicle: saline with Tween-80
  T/C: 161 % of control
dose: 25.0 mg/kg/injection, schedule: Q01DX005 (ip), vehicle: saline with Tween-80
  T/C: 180 % of control

## NC(=O)c1ccc(C(N)=O)cc1
[5]
  T/C: 100 % of control
dose: 25.0 mg/kg/injection, schedule: Q01DX009 (ip), vehicle: saline with Tween-80
  T/C: 100 % of control
dose: 50.0 mg/kg/injection, schedule: Q01DX009 (ip), vehicle: saline with Tween-80
  T/C: 95 % of control

## C/C(=N\NC(=S)N1CCCCC1)c1ccccn1
dose: 6.25 mg/kg/injection, schedule: Q01DX009 (ip), vehicle: saline with Tween-80
  T/C: 98 % of control
[5]
  T/C: 100 % of control
